Assay results: patent US20250129012A1, “ANTI-INFLAMMATORY AND ANALGESIC COMPOUNDS AND USE THEREOF” (JIANGSU ATOM BIOSCIENCE AND PHARMACEUTICAL CO., LTD., priority 2021, published 2025)
Read-outs that look alike come from different tables or passages of the source.

Assay: In vivo pharmacokinetics in SD rats
Protocol: Compound stock solution preparation: an appropriate amount of solid powder of the compounds were weighed separately, a certain amount of DMSO was added and 20 mg/mL of stock solution was obtained under vortex ultrasound.
Preparation of test compound for gavage: an appropriate amount of compound stock solution was taken by pipette, a certain amount of Solutol HS15 solution was added, the mixture was vortexed for 1 minute, then a certain amount of saline was added, and 1 mg/mL of solution was obtained after mixing well.
Preparation of test compounds for intravenous injection: an appropriate amount of compound stock solution was taken by pipette separately, a certain amount of Solutol HS15 solution was added, the mixture was vortexed for 1 minute, then a certain amount of physiological saline was added and a solution of 0.5 mg/mL was obtained after mixing well.
The animals were fasted overnight before administration by gavage, and food was given 4 hours after administration, during which they were free to drink. Two groups were set for each test compound, intravenous injection group and oral administration group, and the dose and mode of administration were shown in Table 12 below.
The blood samples were centrifuged at 4° C. for 5 min at 2,000 g to separate the plasma. The plasma samples were analyzed by LC/MS/MS to detect the concentration of each test compound in the plasma samples.
The parameters related to the […] were obtained by calculations with WinNonlin® Professional software.

[1] = Sprague-Dawley, rat, in vivo, 10 mg/kg
[2] = Sprague-Dawley, rat, in vivo, iv, 1 mg/kg
[3] = Sprague-Dawley, rat, in vivo, po, 10 mg/kg

Question: For `[2H]C([2H])([2H])NC(=O)c1ccc2c(cc1=O)[C@@H](NC(C)=O)CCc1cc(OC)c(OC)c(OC)c1-2` [Compound 56, (S)-7-acetamido-1,2,3-trimethoxy-N-(trideuterio)methyl-9-oxo-5,6,7,9-tetrahydrobenzo[a]heptalen-10-carboxamide], which F [1] is on record?
Answer: 62.3%

Question: What about the AUC(0-inf) [2] of the same compound?
Answer: 597 ng·h/mL

Question: What about the MRT inf [2] of the same compound?
Answer: 0.582 h

Question: And the Vd [2]?
Answer: 0.977 L/kg

Question: And the clearance [2]?
Answer: 28.7 mL/min/kg

Question: What about the half-life [2] of the same compound?
Answer: 0.59 h

Question: And the AUC(0-inf) [3]?
Answer: 3720 ng·h/mL

Question: What about the Cmax [3] of the same compound?
Answer: 1640 ng/mL

Question: What about the MRT inf [3] of the same compound?
Answer: 2.2 h

Question: And the Tmax [3]?
Answer: 0.417 h

Question: And the half-life [3]?
Answer: 1.27 h

Question: Which F [1] does the source give for `[2H]C([2H])([2H])Oc1cc2c(c(OC)c1OC([2H])([2H])[2H])-c1ccc(C(=O)NC)c(=O)cc1[C@@H](NC(C)=O)CC2` [Compound 124, (S)-7-acetamido-1-methoxy-2,3-bis(trideuteromethoxy)-N-methyl-9-oxo-5,6,7,9-tetrahydrobenzo[a] heptalen-10-carboxamide] here?
Answer: 44.7%

Question: And the AUC(0-inf) [2]?
Answer: 756 ng·h/mL

Question: And the MRT inf [2]?
Answer: 0.652 h

Question: And the Vd [2]?
Answer: 0.864 L/kg

Question: And the clearance [2]?
Answer: 22.3 mL/min/kg

Question: What about the half-life [2] of the same compound?
Answer: 0.644 h

Question: And the AUC(0-inf) [3]?
Answer: 3380 ng·h/mL

Question: What about the Cmax [3] of the same compound?
Answer: 2260 ng/mL

Question: And the MRT inf [3]?
Answer: 1.71 h

Question: What about the Tmax [3] of the same compound?
Answer: 0.333 h

Question: What about the half-life [3] of the same compound?
Answer: 1.38 h

Question: With `CNC(=O)c1ccc2c(cc1=O)[C@@H](NC(C)=O)CCc1cc3c(c(OC)c1-2)OCO3` [Compound 125, (S)-6-acetamido-13-methoxy-N-methyl-4-oxo-4,6,7,8-tetrahydroheptalen[1′,2′:4,5]benzo[1,2-d][1,3]dioxolane-3-carboxamide] as the compound, how does the F (Gavage - 10 mg/kg, calculated by AUCINF) read?
Answer: 93.0%

Question: And the AUC(0-inf) (Sprague-Dawley, rat, in vivo, po, Gavage - 10 mg/kg, read-out: AUCINF)?
Answer: 5460 ng·h/mL

Question: And the Cmax (Sprague-Dawley, rat, in vivo, po, Gavage - 10 mg/kg, read-out: Cmax)?
Answer: 4150 ng/mL

Question: What about the MRT inf (Sprague-Dawley, rat, in vivo, po, Gavage - 10 mg/kg, read-out: MRTINF) of the same compound?
Answer: 1.8 h

Question: And the Tmax (Sprague-Dawley, rat, in vivo, po, Gavage - 10 mg/kg, read-out: Tmax)?
Answer: 0.25 h

Question: And the half-life (Sprague-Dawley, rat, in vivo, po, Gavage - 10 mg/kg, read-out: t1/2 (converted))?
Answer: 3.33 h

Question: And the AUC(0-inf) (Sprague-Dawley, rat, in vivo, Intravenous injection - 1 mg/kg, read-out: AUCINF)?
Answer: 587 ng·h/mL

Question: What about the clearance (Sprague-Dawley, rat, in vivo, Intravenous injection - 1 mg/kg, read-out: CL (converted)) of the same compound?
Answer: 28.5 mL/min/kg

Question: What about the MRT inf (Sprague-Dawley, rat, in vivo, Intravenous injection - 1 mg/kg, read-out: MRTINF) of the same compound?
Answer: 0.675 h

Question: What about the Vd (Sprague-Dawley, rat, in vivo, Intravenous injection - 1 mg/kg, read-out: VSS) of the same compound?
Answer: 1.15 L/kg

Question: What about the half-life (Sprague-Dawley, rat, in vivo, Intravenous injection - 1 mg/kg, read-out: t1/2 (converted)) of the same compound?
Answer: 1.19 h

Question: For `[2H]C([2H])([2H])Oc1c(OC)c(OC)cc2c1-c1ccc(C(=O)NC)c(=O)cc1[C@@H](NC(C)=O)CC2` [Compound 132, (S)-7-acetamido-2,3-dimethoxy-1-trideuteromethoxy-N-methyl-9-oxo-5,6,7,9-tetrahydrobenzo[a]heptalen-10-carboxamide], which F [1] is on record?
Answer: 47.5%

Question: And the AUC(0-inf) [2]?
Answer: 702 ng·h/mL

Question: And the MRT inf [2]?
Answer: 1.06 h

Question: What about the Vd [2] of the same compound?
Answer: 1.39 L/kg

Question: What about the clearance [2] of the same compound?
Answer: 24.3 mL/min/kg

Question: What about the half-life [2] of the same compound?
Answer: 2.12 h

Question: What about the AUC(0-inf) [3] of the same compound?
Answer: 3340 ng·h/mL

Question: What about the Cmax [3] of the same compound?
Answer: 1780 ng/mL

Question: And the MRT inf [3]?
Answer: 2.1 h

Question: What about the Tmax [3] of the same compound?
Answer: 0.25 h

Question: And the half-life [3]?
Answer: 1.39 h
